# Experiments:
# Assay type in all cases: functional, cell-based
# [1] = biological target: T1, PXR (nuclear receptor subfamily 1 group I member 2) (Homo sapiens, UniProt O75469); experiment: Agonist activity at PXR-LBD expressed in HEK293 cells assessed as Gal4-DBD interaction by cellular mammalian one hybrid assay relative to SR-12813; settings: HEK293 cells expressing PXR-LBD, read-out: Efficacy
# T1 sequence (O75469 whole entry): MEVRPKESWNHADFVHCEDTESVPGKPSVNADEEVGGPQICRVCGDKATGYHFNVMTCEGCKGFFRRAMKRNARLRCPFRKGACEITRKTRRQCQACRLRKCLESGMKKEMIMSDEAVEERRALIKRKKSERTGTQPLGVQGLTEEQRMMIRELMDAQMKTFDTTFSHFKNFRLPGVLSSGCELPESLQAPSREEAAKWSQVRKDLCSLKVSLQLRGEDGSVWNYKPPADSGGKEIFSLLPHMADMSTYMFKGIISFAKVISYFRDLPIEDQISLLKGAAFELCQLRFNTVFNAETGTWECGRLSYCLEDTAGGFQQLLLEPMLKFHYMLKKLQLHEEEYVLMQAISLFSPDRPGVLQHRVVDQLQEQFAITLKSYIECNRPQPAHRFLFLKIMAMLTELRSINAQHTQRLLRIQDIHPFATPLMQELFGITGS
# [2] = biological target: T2, Oxysterols receptor LXR-alpha (Homo sapiens, UniProt Q13133); experiment: Agonist activity at LXRalpha-LBD expressed in HEK293 cells assessed as Gal4-DBD interaction by cellular mammalian one hybrid assay
# T2 sequence (Q13133 whole entry): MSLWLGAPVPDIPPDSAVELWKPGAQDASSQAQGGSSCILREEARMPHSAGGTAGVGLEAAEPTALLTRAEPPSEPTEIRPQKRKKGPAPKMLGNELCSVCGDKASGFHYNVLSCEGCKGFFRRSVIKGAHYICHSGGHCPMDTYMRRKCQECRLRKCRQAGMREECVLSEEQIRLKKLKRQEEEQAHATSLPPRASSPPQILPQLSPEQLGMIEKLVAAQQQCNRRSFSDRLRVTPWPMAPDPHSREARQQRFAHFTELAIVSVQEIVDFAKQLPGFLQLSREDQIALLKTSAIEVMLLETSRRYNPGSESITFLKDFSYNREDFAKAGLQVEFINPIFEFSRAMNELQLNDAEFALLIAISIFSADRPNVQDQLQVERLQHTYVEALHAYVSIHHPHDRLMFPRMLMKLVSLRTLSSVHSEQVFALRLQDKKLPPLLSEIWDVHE
# [3] = biological target: T3, Oxysterols receptor LXR-beta (Homo sapiens) (UniProt P55055); experiment: Agonist activity at LXRbeta-LBD expressed in HEK293 cells assessed as Gal4-DBD interaction by cellular mammalian one hybrid assay relative to T0901317
# T3 sequence (whole entry): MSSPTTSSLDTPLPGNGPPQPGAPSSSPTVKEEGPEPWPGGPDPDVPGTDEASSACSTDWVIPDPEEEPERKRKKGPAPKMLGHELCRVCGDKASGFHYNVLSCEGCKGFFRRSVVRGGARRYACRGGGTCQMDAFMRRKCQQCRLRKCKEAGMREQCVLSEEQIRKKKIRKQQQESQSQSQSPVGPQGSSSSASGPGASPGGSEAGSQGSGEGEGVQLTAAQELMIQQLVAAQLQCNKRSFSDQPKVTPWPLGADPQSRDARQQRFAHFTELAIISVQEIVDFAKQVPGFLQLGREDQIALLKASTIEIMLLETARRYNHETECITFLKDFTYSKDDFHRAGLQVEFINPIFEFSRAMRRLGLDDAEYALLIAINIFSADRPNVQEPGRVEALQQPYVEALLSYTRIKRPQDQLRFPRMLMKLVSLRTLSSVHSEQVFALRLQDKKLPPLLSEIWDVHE
# [4] = biological target: T4, Retinoic acid receptor alpha (Homo sapiens, UniProt P10276); experiment: Agonist activity at RARalpha-LBD expressed in HEK293 cells assessed as Gal4-DBD interaction by cellular mammalian one hybrid assay
# T4 sequence (P10276 whole entry): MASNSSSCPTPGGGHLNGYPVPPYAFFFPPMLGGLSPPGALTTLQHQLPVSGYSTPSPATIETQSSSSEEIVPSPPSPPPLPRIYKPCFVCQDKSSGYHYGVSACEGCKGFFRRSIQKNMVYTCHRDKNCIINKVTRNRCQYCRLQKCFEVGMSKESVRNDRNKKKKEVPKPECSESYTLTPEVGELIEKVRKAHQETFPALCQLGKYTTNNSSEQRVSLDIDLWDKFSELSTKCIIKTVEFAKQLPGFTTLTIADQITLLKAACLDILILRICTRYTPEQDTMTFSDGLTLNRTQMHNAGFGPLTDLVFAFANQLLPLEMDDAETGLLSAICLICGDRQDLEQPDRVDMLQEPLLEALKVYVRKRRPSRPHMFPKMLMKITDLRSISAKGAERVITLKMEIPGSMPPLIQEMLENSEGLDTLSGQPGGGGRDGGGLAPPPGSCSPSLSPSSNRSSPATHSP
# Progesterone receptor = biological target: T5, Progesterone receptor (Homo sapiens, UniProt P06401); experiment: Agonist activity at progesterone receptor-LBD expressed in HEK293 cells assessed as Gal4-DBD interaction by cellular mammalian one hybrid assay
# T5 sequence (P06401 whole entry): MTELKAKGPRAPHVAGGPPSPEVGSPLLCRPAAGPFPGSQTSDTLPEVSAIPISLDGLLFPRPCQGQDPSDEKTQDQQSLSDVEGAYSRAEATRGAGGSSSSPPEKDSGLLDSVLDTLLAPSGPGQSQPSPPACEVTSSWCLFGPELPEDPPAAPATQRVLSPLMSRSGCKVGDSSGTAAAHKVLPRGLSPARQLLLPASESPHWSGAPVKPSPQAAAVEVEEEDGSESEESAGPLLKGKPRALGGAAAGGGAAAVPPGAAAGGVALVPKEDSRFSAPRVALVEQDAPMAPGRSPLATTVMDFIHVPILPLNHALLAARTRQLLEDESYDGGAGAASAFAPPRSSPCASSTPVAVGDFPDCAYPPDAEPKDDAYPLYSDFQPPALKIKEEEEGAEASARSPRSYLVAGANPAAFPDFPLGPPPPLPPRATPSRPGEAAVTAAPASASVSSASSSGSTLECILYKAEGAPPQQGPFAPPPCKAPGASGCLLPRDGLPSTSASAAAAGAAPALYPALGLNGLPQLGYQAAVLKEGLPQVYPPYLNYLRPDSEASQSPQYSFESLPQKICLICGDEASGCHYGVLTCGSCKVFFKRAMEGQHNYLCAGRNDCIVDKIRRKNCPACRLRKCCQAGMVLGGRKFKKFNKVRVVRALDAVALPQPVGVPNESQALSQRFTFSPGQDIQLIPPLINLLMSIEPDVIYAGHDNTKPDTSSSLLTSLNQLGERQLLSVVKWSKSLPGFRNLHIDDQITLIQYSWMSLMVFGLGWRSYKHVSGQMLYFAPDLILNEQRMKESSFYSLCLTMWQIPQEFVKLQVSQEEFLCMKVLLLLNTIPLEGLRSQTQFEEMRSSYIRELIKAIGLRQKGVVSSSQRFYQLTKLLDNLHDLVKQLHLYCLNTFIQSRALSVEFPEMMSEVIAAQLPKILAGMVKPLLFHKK
Emax [1] [%],EC50 [2] [µM],Efficacy [3] [%],EC50 [4] [µM],EC50 (Progesterone receptor) [µM],Structure (SMILES)
62,> 10,0,> 10,> 10,CN(Cc1cccc(C(=O)O)c1)c1ccc(OCc2c(-c3c(Cl)cccc3Cl)noc2C2CC2)nc1C(F)(F)F
67,> 10,0,> 10,> 10,CN(Cc1ccc(C(=O)O)cc1)c1ccc(OCc2c(-c3c(Cl)cccc3Cl)noc2C2CC2)nc1C(F)(F)F
60,> 10,0,> 10,> 10,CC(C)c1onc(-c2c(Cl)cccc2Cl)c1COc1ccc(N(C)Cc2ccc(C(=O)O)cc2)c(C(F)(F)F)n1
